Measured values as given in US7244724B2, “Pyrrolobenzodiazepines” (United States of America, Represented by the Secretary, …, priority 2003, dated 2007).

Tests used:
[1] = Stability in d6-DMSO, d4-MeOH and D2O by 1H NMR (Study 4); format: physicochemical
Experimental: Samples of SJG-720 (˜3 mg) were dissolved in d6-DMSO, D2O and d4-MeOH (Cambridge Isotopes) and transferred to separate NMR tubes (Wilmad, 5 mm). ^1H NMR spectra were obtained on a Bruker Avance 400 MHz NMR spectrophotometer (typically 64 scans). ^13C and DEPT (Distortionless Enhancement through Polarized Transfer) experiments were performed on these samples using the same instrument at the appropriate field strength (100 MHz).
NMR spectra were recorded, as described above, after the following time intervals: • d6-DMSO, 1 hr, 8 days. • D2O, 3 hrs, 8 days. • d4-MeOH, 10 minutes, 3 days. Additional Studies
NMR experiments were carried out on SJG-136 in its carbinolamine forms. […] However, strong signals corresponding to the kinetic and thermodynamic carbinolamine forms can be observed when the sample is analysed in d6-DMSO. These gradually disappear from the spectra over a period of about 24 hours when the imine form becomes the predominant species.
Samples of the bisulphite adduct SJG-720 dissolved in d6-DMSO and D2O were stored at room temperature for over a period of 7 days and then analysed by ^1H NMR spectroscopy. […] In addition, a sample of SJG-720 stored at room temperature in d4-MeOH for over 3 days was also analysed by ^1H NMR.

[2] = tested on: K562 human chronic myeloid leukaemia cells; assay: K562 assay (MTT cytotoxicity); format: cell-based; details: 96 h, 4 days incubation, n=2
Experimental: An initial stock of compound (in 0.006% DMSO) was used to generate a 1:3 dilution series ranging from 600 nM to 30 pM be the sequential addition of 40 μL compound to 80 μL of solvent (0.006% DMSO in sterile H2O). 10 μL of each point of the dilution range was transferred to a 96 well assay plate (Nunc, Cat. No. 163320) to generate four replica points per compound concentration. K562 human chronic myeloid leukaemia cells were maintained in RPM1 1640 medium supplemented with 10% foetal calf serum and 2 mM glutamine at 37° C. in a humidified atmosphere containing 5% CO2. 190 μL of a 5×10^4 cell solution was added to each well of the assay plate using a Matrix Wellmate (Apogent Discoveries), resulting in a total of 9.5×10^3 cells/well. Working compound concentrations therefore ranged from 30 nM to 1.5 pM. Plates were then kept in the dark at 37° C. in a humidified atmosphere containing 5% CO2. The assay is based on the ability of viable cells to reduce a yellow soluble tetrazolium salt, 3-(4,5-dimethylthiazol-2-yl)-2,5-diphenyl-2H-tetrazolium bromide (MTT, Aldrich-Sigma), to an insoluble purple formazan precipitate. […] The optical density was then read at a wavelength of 540 nm on a Fusion plate reader (Perkin Elmer). […]

SMILES | Interconversion of carbinolamine forms to imine ([1]; CDCl3 or CD3CN) | Period over which carbinolamine form signals disappear and the imine form becomes predominant ([1]; carbinolamine forms in d6-DMSO) | IC50 [2] [nM] | Stability in D2O (1H NMR spectrum change) ([1]; D2O, room temperature, over 7 days) | Stability in d4-MeOH (interconversion to carbinolamine methyl ether) ([1]; d4-MeOH, room temperature, over 3 days) | Stability in d6-DMSO (reversion to parent imine) ([1]; d6-DMSO, room temperature, over 7 days)
C=C1C[C@H]2C=Nc3cc(OCCCOc4cc5c(cc4OC)C(=O)N4CC(=C)C[C@H]4C=N5)c(OC)cc3C(=O)N2C1 [SJG-136] | revert to the imine form immediately | about 24 hours | < 10 |  |  | 
C=C1C[C@H]2C(S(=O)(=O)[O-])Nc3cc(OCCCOc4cc5c(cc4OC)C(=O)N4CC(=C)C[C@H]4C(S(=O)(=O)[O-])N5)c(OC)cc3C(=O)N2C1.[Na+].[Na+] (stereo partly drawn) [SJG-720, 1,1′[[(Propane-1,3-diyl)dioxy]bis(11aS)-11-sulpho-7-methoxy-2-methylidene-1,2,3,10,11,11a-hexahydro-5H-pyrrolo[2,1-c][1,4-benzodiazepin-5-one]] sodium salt] |  |  |  | no appreciable hydrolysis had occurred | interconversion to the carbinolamine methyl ether from was not observed | complete absence of parent imine SJG-136 signals
